Results: the supplement of paper PMC10307832

Columns and labels:
Assay in all cases: relative viability (nuclei count vs DMSO), 5 days (fraction); higher = more cells survive
201T = system: 201T
Summary of the method: (§1)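 The day after seeding in 1536-well plates, lung cancer cell lines were treated by pin tool with a single drug, or with a fixed anchor-drug dose together with five library-drug doses (not always all listed) in √10 steps. After 5 days, a combined fix-and-stain solution (final 0.05% Triton X-100, 1% formaldehyde, 1 ug/ml Hoechst) was added. Nuclei counted on 4× images gave relative viability as treated counts over vehicle counts, reported as the median of duplicate plates.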

BEN = system: BEN
Summary of the method: as §1

COR-L 105 = system: COR-L 105
Summary of the method: as §1

EKVX = system: EKVX
Summary of the method: as §1

EPLC-272H = system: EPLC-272H
Summary of the method: as §1

H3255 = system: H3255
Summary of the method: as §1

HCC-44 = system: HCC-44
Summary of the method: as §1

HCC-827 = system: HCC-827
Summary of the method: as §1

LCLC-97TM1 = system: LCLC-97TM1
Summary of the method: as §1

LOU-NH91 = system: LOU-NH91
Summary of the method: as §1

LU99A = system: LU99A
Summary of the method: as §1

NCI-H1437 = system: NCI-H1437
Summary of the method: as §1

NCI-H1666 = system: NCI-H1666
Summary of the method: as §1

NCI-H1975 = system: NCI-H1975
Summary of the method: as §1

NCI-H2085 = system: NCI-H2085
Summary of the method: as §1

NCI-H2087 = system: NCI-H2087
Summary of the method: as §1

NCI-H2170 = system: NCI-H2170
Summary of the method: as §1

NCI-H647 = system: NCI-H647
Summary of the method: as §1

PC-3 [JPC-3] = system: PC-3 [JPC-3]
Summary of the method: as §1

SW 1573 = system: SW 1573
Summary of the method: as §1

Cc1sc2c(c1C)C(c1ccc(Cl)cc1)=N[C@@H](CC(=O)OC(C)(C)C)c1nnc(C)n1-2 [JQ1] + CC1(C)CCC(c2ccc(Cl)cc2)=C(CN2CCN(c3ccc(C(=O)NS(=O)(=O)c4ccc(N[C@H](CCN5CCOCC5)CSc5ccccc5)c(S(=O)(=O)C(F)(F)F)c4)cc3)CC2)C1 [Navitoclax] (partner 0.5 µM)
relative viability (201T; first compound 0.04 µM): 1.23
relative viability (201T; first compound 0.1265 µM): 0.977
relative viability (201T; first compound 0.4 µM): 1.15
relative viability (201T; first compound 1.265 µM): 0.842
relative viability (201T; first compound 4 µM): 0.618
relative viability (BEN; first compound 0.04 µM): 0.0812
relative viability (BEN; first compound 0.1265 µM): 0.082
relative viability (BEN; first compound 0.4 µM): 0.0765
relative viability (BEN; first compound 1.265 µM): 0.0678
relative viability (BEN; first compound 4 µM): 0.0582
relative viability (COR-L 105; first compound 0.04 µM): 0.707
relative viability (COR-L 105; first compound 0.1265 µM): 0.567
relative viability (COR-L 105; first compound 0.4 µM): 0.462
relative viability (COR-L 105; first compound 1.265 µM): 0.282
relative viability (COR-L 105; first compound 4 µM): 0.326
relative viability (EKVX; first compound 0.04 µM): 0.945
relative viability (EKVX; first compound 0.1265 µM): 0.827
relative viability (EKVX; first compound 0.4 µM): 0.96
relative viability (EKVX; first compound 1.265 µM): 0.802
relative viability (EKVX; first compound 4 µM): 0.685
relative viability (EPLC-272H; first compound 0.04 µM): 1.14
relative viability (EPLC-272H; first compound 0.1265 µM): 0.958
relative viability (EPLC-272H; first compound 0.4 µM): 1.06
relative viability (EPLC-272H; first compound 1.265 µM): 0.462
relative viability (EPLC-272H; first compound 4 µM): 0.321
relative viability (H3255; first compound 0.04 µM): 0.495
relative viability (H3255; first compound 0.1265 µM): 0.441
relative viability (H3255; first compound 0.4 µM): 0.566
relative viability (H3255; first compound 1.265 µM): 0.268
relative viability (H3255; first compound 4 µM): 0.258
relative viability (HCC-44; first compound 0.04 µM): 1.02
relative viability (HCC-44; first compound 0.1265 µM): 0.802
relative viability (HCC-44; first compound 0.4 µM): 0.705
relative viability (HCC-44; first compound 1.265 µM): 0.265
relative viability (HCC-44; first compound 4 µM): 0.389
relative viability (HCC-827; first compound 0.04 µM): 0.95
relative viability (HCC-827; first compound 0.4 µM): 1.14
relative viability (HCC-827; first compound 1.265 µM): 0.94
relative viability (HCC-827; first compound 4 µM): 0.689
relative viability (LCLC-97TM1; first compound 0.1265 µM): 0.329
relative viability (LCLC-97TM1; first compound 0.4 µM): 0.403
relative viability (LCLC-97TM1; first compound 1.265 µM): 0.175
relative viability (LCLC-97TM1; first compound 4 µM): 0.152
relative viability (LOU-NH91; first compound 0.04 µM): 0.637
relative viability (LOU-NH91; first compound 0.1265 µM): 0.606
relative viability (LOU-NH91; first compound 0.4 µM): 0.413
relative viability (LOU-NH91; first compound 1.265 µM): 0.411
relative viability (LOU-NH91; first compound 4 µM): 0.429
relative viability (LU99A; first compound 0.04 µM): 0.746
relative viability (LU99A; first compound 0.1265 µM): 0.699
relative viability (LU99A; first compound 0.4 µM): 0.201
relative viability (LU99A; first compound 1.265 µM): 0.137
relative viability (LU99A; first compound 4 µM): 0.146
relative viability (NCI-H1437; first compound 0.04 µM): 1.03
relative viability (NCI-H1437; first compound 0.1265 µM): 0.798
relative viability (NCI-H1437; first compound 0.4 µM): 0.693
relative viability (NCI-H1437; first compound 1.265 µM): 0.325
relative viability (NCI-H1437; first compound 4 µM): 0.306
relative viability (NCI-H1666; first compound 0.04 µM): 0.926
relative viability (NCI-H1666; first compound 0.1265 µM): 0.899
relative viability (NCI-H1666; first compound 0.4 µM): 0.787
relative viability (NCI-H1666; first compound 1.265 µM): 0.438
relative viability (NCI-H1666; first compound 4 µM): 0.513
relative viability (NCI-H1975; first compound 0.04 µM): 1.1
relative viability (NCI-H1975; first compound 0.1265 µM): 0.715
relative viability (NCI-H1975; first compound 0.4 µM): 0.821
relative viability (NCI-H1975; first compound 1.265 µM): 0.336
relative viability (NCI-H1975; first compound 4 µM): 0.266
relative viability (NCI-H2085; first compound 0.04 µM): 1.08
relative viability (NCI-H2085; first compound 0.1265 µM): 1.1
relative viability (NCI-H2085; first compound 0.4 µM): 0.902
relative viability (NCI-H2085; first compound 1.265 µM): 0.561
relative viability (NCI-H2085; first compound 4 µM): 0.643
relative viability (NCI-H2087; first compound 0.04 µM): 1.03
relative viability (NCI-H2087; first compound 0.4 µM): 0.74
relative viability (NCI-H2087; first compound 1.265 µM): 0.552
relative viability (NCI-H2087; first compound 4 µM): 0.502
relative viability (NCI-H2170; first compound 0.04 µM): 0.652
relative viability (NCI-H2170; first compound 0.1265 µM): 0.641
relative viability (NCI-H2170; first compound 0.4 µM): 0.452
relative viability (NCI-H2170; first compound 1.265 µM): 0.279
relative viability (NCI-H2170; first compound 4 µM): 0.285
relative viability (NCI-H647; first compound 0.04 µM): 1.1
relative viability (NCI-H647; first compound 0.1265 µM): 0.709
relative viability (NCI-H647; first compound 0.4 µM): 0.498
relative viability (NCI-H647; first compound 1.265 µM): 0.141
relative viability (NCI-H647; first compound 4 µM): 0.0972
relative viability (PC-3 [JPC-3]; first compound 0.04 µM): 0.781
relative viability (PC-3 [JPC-3]; first compound 0.1265 µM): 0.877
relative viability (PC-3 [JPC-3]; first compound 0.4 µM): 0.942
relative viability (PC-3 [JPC-3]; first compound 1.265 µM): 0.644
relative viability (PC-3 [JPC-3]; first compound 4 µM): 0.499
relative viability (SW 1573; first compound 0.04 µM): 0.984
relative viability (SW 1573; first compound 0.1265 µM): 0.756
relative viability (SW 1573; first compound 0.4 µM): 0.827
relative viability (SW 1573; first compound 1.265 µM): 0.536
relative viability (SW 1573; first compound 4 µM): 0.239
